Data: patent US6348317B1, “Fluorescent and DNA cleavage properties of peptide/dye conjugates” (The Arizona Board of Regents, priority 1999, dated 2002)

Experiments:
[1] = test system: GRE3 dsDNA; test: Photocleavage at 514 nm, PAGE analysis; format: biochemical
Procedure: (§1) The purified DNA strands shown in FIG. 2 were 5′^-32P-end-labeled using T4 polynucleotide kinase and purified as described above. Oxygen removal was performed by bubbling argon through the samples. Irradiations were performed on […] samples in a 1.0 mL glass cuvette fit with a septum using an argon-ion laser at 514 nm with a power of 300 mW/cm^2. After irradiation, samples were divided in half and one portion treated with piperidine, the other immediately frozen. Piperidine treatment consisted of adding an equal volume of freshly prepared 20% piperidine in water to the sample followed by heating at 90° C. for 30 minutes. Both the treated and untreated fractions were dried under vacuum. To each dried sample was added […] of 80% formamide in water. The products of the photocleavage experiments were analyzed on a 15% polyacrylamide (19:1) vertical sequencing gel with dimensions 21 cm×40 cm×0.4 mm. Maxam-Gilbert A+G and C+T sequencing reactions were used as a reference. A. M. Maxam, et al., Meth. Enzymol. 65:499-560 (1980). Gels were run at 2000V for 1.5-2 hours. Gels were dried and exposed to a phosphorimaging screen for 4 hours and analyzed on a Molecular Dynamics Storm-840 gel scanner in phosphorimaging mode.
Photocleavage of TO-ZF conjugate. We examined the photoinduced cleavage of 5′-32P-end-labeled dsDNA fragments containing the dsDNA sequences GRE1, GRE2 and GRE3 in the presence of either unconjugated TO or TO-ZF. […] We have performed similar photocleavage measurements of the complementary strands in the dsDNA duplexes used in each case. […] After irradiation of TO-ZF bound to dsDNA in Tris buffer solution at 514 nm (514 nm is in the main band of the absorbance spectrum of intercalated thiazole orange as shown in FIG. 3), the photo-products were denatured and separated using denaturing polyacrylamide gel electrophoresis (PAGE). […]
To explore other possible mechanisms of thiazole orange mediated photocleavage in the region on the 5′-side of the GRE target sequence, the guanine located within the GRE (5′-TGTTCT-3′) in the GRE1 dsDNA fragment was changed to an adenine to give GRE3 (FIG. 2). […] Fluorescence measurements of TO-ZF binding to GRE1 and GRE3 target sequences (FIG. 5A) show only a modest difference in the dissociation constant between the two sequences. Thus the measured changes in the photocleavage products between GRE1 and GRE3 are not an artifact of strong differences in the binding affinity of TO-ZF between these sequences. […] The total chemical yield of the piperidine dependent reactions in these bands, measured as the number of fluorescence counts in product bands divided by the total counts of a given lane, increased three-fold from 2% in GRE1 (described above) to 6% in GRE3 for samples reacted in the presence of oxygen. […]

[2] = test system: GRE2 dsDNA; test: Photocleavage at 514 nm, intensity dependence of guanine oxidation; format: biochemical; conditions: 160 nM duplex DNA, 200 nM TO-ZF, piperidine
Procedure: as §1, with “Maxam-Gilbert A+G and C+T sequencing reactions were used as a reference. A. M. Maxam, et al., Meth. Enzymol. 65:499-560 (1980). Gels were run at 2000V for 1.5-2 hours.” left out
Photocleavage of TO-ZF conjugate. […] After irradiation of TO-ZF bound to dsDNA in Tris buffer solution at 514 nm (514 nm is in the main band of the absorbance spectrum of intercalated thiazole orange as shown in FIG. 3), the photo-products were denatured and separated using denaturing polyacrylamide gel electrophoresis (PAGE). […]

[3] = test system: 5′-32P-end-labeled GRE2 duplex DNA; test: Radical hydroxyl footprinting; format: binding; conditions: 60 minutes in the dark at 25° C., 60 seconds reaction
Procedure: The protocol for radical hydroxyl footprinting reactions was adapted from previously established methods, A. Revzin, Ed., Separation, Detection and Characterization of Biological Macromolecules (1993); P. E. Nielsen, J. Molec. Recog. 3:1-25 (1990). Reaction samples comprised of the TO-ZF and 5′^-32P-end-labeled GRE2 in 20 mM Tris (pH 7.9), 40 mM NaCl, 20 mM KCl, 1 mM MgCl2 were allowed to equilibrate in the dark at room temperature for 60 minutes. Equal volumes of a freshly prepared solution of 0.2 mM [Fe(EDTA)]^2− was mixed with a 0.3% H2O2 solution and a 10 mM sodium ascorbate solution and added to the reaction sample. After a one minute incubation, the reactions were quenched with an aqueous solution of 20 mM thiourea and 10 mg/ml tRNA. The footprinting reactions were analyzed on a 15% denaturing polyacrylamide gel.
Footprinting of TO-ZF Conjugate. DNA footprinting by the TO-ZF conjugate was performed to determine if the TO-ZF conjugate was binding the same sequence as the native glucocorticoid receptor protein DNA-binding domain. More specifically, reaction samples (Maxam-Gilbert A+G and C+T sequencing reactions, radical hydroxyl cleavage of GRE2 in the presence of TO-ZF, radical hydroxyl cleavage of GRE2 in the absence of TO-ZF) contained […] duplex DNA and […] TO-ZF, 20 mM Tris (pH 7.9), 40 mM NaCl, 20 mM KCl, 1 mM MgCl2. […]

TO-ZF: 29 amino acid single zinc finger from residues 438-465 of glucocorticoid receptor, thiazole orange coupled to a lysine ε-amine
pattern of photo-induced cleavage ([1]; 514 nm, gel electrophoresis): a confined group of bands flanking the altered GRE sequence which are only partially piperidine dependent | increase in band intensity of strand cleavage in the presence of D2O ([1]; D2O rather than H2O in the buffer): ≤ 25% | lowering of chemical yield in the absence of oxygen ([1]; piperidine treated samples, absence of oxygen): 10-20% | total chemical yield of the piperidine dependent reactions ([1]; samples reacted in the presence of oxygen): 6% | preferential site of photocleavage [2]: Preferential cleavage is observed at the 5′-G of the GG sequence | region protected from radical hydroxyl cleavage [3]: protects a four base pair region (TTCT) within the native GRE binding sequence
